In patent publication US4624950A, “Method for treating atherosclerosis hyperlipidema, lipid deposition on arterial walls, or raising the ratio of high density lipoprotein cholesterol to total cholesterol in serum” (Nissan Chemical Industries Ltd., priority 1983, dated 1986):
Like-named read-outs stand apart in the source and are kept apart here.

Tests used:
[1] = test system: emulsion-induced hyperlipidemic rats; test: Antihyperlipidemic activity in emulsion-induced hyperlipidemic rats (Test 1); type: in vivo, rat (male S.D.); settings: 300 mg/kg/day p.o., 3 days
Procedure: The daily dose of the compound of the formula I is from 0.01 to 3.0 g, preferably from 0.1 to 1.5 g, for an adult. It is administered from once to three times per day. The dose may of course be varied depending upon the age, the weight or the condition of illness of the patient. Now, the usefulness of the compound of the formula I as an antiatherosclerotic agent will be shown by tests. In the following tests, the fractionation of lipoproteins was conducted by a dextran sulfate-MgCl2 precipitation method.
Cholesterol in serum was measured by means of a cholesterol measuring kit (Cholesterol C-Test Wako, manufactured by Wako Junyaku Co., Ltd.), and cholesterol in HDL was measured by means of NC Hi-Set, manufactured by Nippon Chemiphar Co., Ltd. The quantitative analysis of triglyceride was conducted by means of a triglyceride measuring kit (Triglyceride C-II-Test Wako, manufactured by Wako Junyaku Co., Ltd.).
Further, the change rate in the following Tables, was calculated by the following equation.
Change rate(%)=(A-B/A)×100
where A is the amount of serum lipids (mg/dl) of the control group, and B is the amount of serum lipids (mg/dl) of the group to which the therapeutic agent was administered.
The antihyperlipidemic activity in emulsion-induced hyperlipidemic rats
Male S.D. rats weighing 80-90 g (4 weeks old) were used. They were divided into groups of 5 to 6 rats each. The test compounds suspended in 0.5% CMC-Na(carboxymethyl cellulose sodium salt) were given to the rats in a daily dose of 4 ml/kg via stomach tube every 10:00 a.m. After 30 min., lipids emulsion having the following composition was orally given to the rats in an amount of 2.5 ml per rat. During the experimental period of 3 days, the rats were fed on a standard commercial diet and water ad libitum. […] The total cholesterol and triglyceride, and HDL cholesterol were measured.

[2] = test system: Triton-induced hyperlipidemic rats; test: Antihyperlipidemic activity in Triton-induced hyperlipidemic rats, method A (24 hours) (Test 2); type: in vivo, rat (male S.D.)
Procedure: (§1) Cholesterol in serum was measured by means of a cholesterol measuring kit (Cholesterol C-Test Wako, manufactured by Wako Junyaku Co., Ltd.), and cholesterol in HDL was measured by means of NC Hi-Set, manufactured by Nippon Chemiphar Co., Ltd. The quantitative analysis of triglyceride was conducted by means of a triglyceride measuring kit (Triglyceride C-II-Test Wako, manufactured by Wako Junyaku Co., Ltd.). Further, the change rate in the following Tables, was calculated by the following equation. Change rate(%)=(A-B/A)×100 where A is the amount of serum lipids (mg/dl) of the control group, and B is the amount of serum lipids (mg/dl) of the group to which the therapeutic agent was administered. The antihyperlipidemic activity in Triton-induced hyperlipidemic rats Male S.D. rats weighing 230-250 g (7 weeks old) were divided into groups of 5 rats each and injected with a physiological saline solution of Triton Wr-1339 in a dose of 250 mg/kg (5 ml/kg) i.v. through the tail vein. […] The test compounds suspended in 0.5% CMC-Na were given to the rats in an amount of 2 ml/kg via stomach tube 1 hour before and 5 hours after (in the case of method A) or 1 hour before and 23 hours after (in the case of method B) the injection of Triton solution. Control rats received the same volume of the vehicle. The animals were fasted during the experimental period. The total cholesterol and triglyceride in the serum were measured.

[3] = test system: Triton-induced hyperlipidemic rats; test: Antihyperlipidemic activity in Triton-induced hyperlipidemic rats, method B (43 hours) (Test 2); type: in vivo, rat (male S.D.)
Procedure: as §1

[4] = test system: cytochrome P-450; test: Effect on cytochrome P-450 / hepatic drug metabolizing systems of normal rats (Test 5); type: in vivo, rat (male S.D.); settings: 300 mg/kg/day, seven days
Procedure: (§2) The activities against serum lipid, the degree of hepatomegaly and the hepatic drug metabolizing systems of normal rats
(§3) Male S.D. rats (6 weeks old) were divided into groups of 5 rats each. The test compounds suspended in 5% gum arabic were given to the rats once a day for seven days in a daily dose of 300 mg/kg. Then, the rats were fasted for one day, blood samples were taken, and the total cholesterol, triglyceride, HDL-cholesterol in the serum were quantitatively analyzed. Further, the liver weight was measured, and the degree of hepatomegaly was determined by comparing the weight ratio per 100 g of the body weight with that of the control group. Furthermore, GOT and GPT values were measured, and the activities of cytochrome P-450 and glutathione related enzymes were also measured. These values were compared with those of the control groups to investigate any abnormality.

[5] = test system: glutathione related enzymes; test: Effect on glutathione related enzymes of normal rats (Test 5); type: in vivo, rat (male S.D.); settings: 300 mg/kg/day, seven days
Procedure: as §2, §3

[6] = test system: Salmonella (TA98, TA100, TA1535 and TA1538); test: Mutagenicity test, Salmonella (Test 6); settings: up to 5000 μg/Plate, absence or presence of S-9 mix of rat liver
Procedure: The mutagenicity was tested by using Escherichia coli (WP2UVrA) and Salmonella (TA98, TA100, TA1535 and TA1538) in the absence or presence of a drug metabolizing enzymes S-9 mix of rat liver.

[7] = Acute toxicity test (Test 7); settings: mouse, in vivo, mortality after seven days, read-out: Acute toxicity: dose up to which no toxicity was shown
Procedure: The test compounds suspended in 0.5% CMC-Na were administered p.o. or injected i.p. to male ddY mice. The acute toxicity was dertermined based on the mortality after seven days.

For `CN1C(=S)SC(c2ccccc2)N(C)C1c1ccccc1` (centres unmarked) [Compound of the formula I, 3,5-dimethyl-4,6-diphenyl-tetrahydro-2H-1,3,5-thiadiazine-2-thione], the “Serum lipid, HDL-Chol” value [1] was 22.1 mg/dL, the “Serum lipid, TG” value [1] was 97.4 mg/dL and the “Serum lipid, Total Chol” value [1] was 145 mg/dL. The “Change rate, HDL-Chol” value ([1]; vs control) was “+80.6%”, the “Change rate, TG” value ([1]; vs control) was -36% and the “Change rate, Total Chol” value ([1]; vs control) was -45.0%. The “Change rate after 24 hours, Chol” value ([2]; 150 mg/kg p.o.) was -6.0%, the “Change rate after 24 hours, TG” value ([2]; 150 mg/kg p.o.) was “+21.8%” and the “Lipid reducing activity (in words)” value ([2]; method A) was “no lipid reducing activity was observed”. For the same compound, the “Change rate after 43 hours, Chol” value ([3]; 150 mg/kg p.o.) was -43.5%, the “Change rate after 43 hours, TG” value ([3]; 150 mg/kg p.o.) was -65.7% and the “Lipid reducing activity (in words)” value ([3]; method B) was “distinc lipid reducing activity”. The “Abnormalities in activity against cytochrome P-450 or other liver microsome drug metabolizing systems (in words)” value [4] was “no abnormalities were observed”, the “Abnormalities in activity against glutathione related enzymes (in words)” value [5] was “no abnormalities were observed” and the Mutagenicity [6] was “did not show any mutagenicity”. The NOAEL at 168 h ([7]; ip, abdominal (i.p.) administration) was at least 4000 mg/kg and the NOAEL at 168 h ([7]; oral administration) was at least 8000 mg/kg.
